Test results: the NIST ThermoML archive (doi:10.1021/je900091b)

Tests used:
[1] = xn = mol fraction of the nth substance listed; conditions: Liquid, x2 = 0
[2] = Liquid

CCCCn1cc[n+](C)c1.F[P-](F)(F)(F)(F)F [1-butyl-3-methylimidazolium hexafluorophosphate] + C=C(C)C(=O)OC
[1]
Conditions | mass density [kg/m3] | viscosity [mPa·s]
283.15 K | 1380.34 | 802.09
288.15 K | 1376.06 | 552.57
293.15 K | 1371.8 | 389.81
298.15 K | 1367.53 | 282.24
303.15 K | 1363.28 | 209.25
308.15 K | 1359.19 | 159.15
313.15 K | 1355.09 | 123.38
318.15 K | 1350.98 | 97.78
323.15 K | 1346.87 | 78.77
328.15 K | 1342.78 | 61.34
333.15 K | 1338.7 | 50.38
343.15 K | 1330.56 | 35.25
353.15 K | 1322.47 | 25.76

C=C(C)C(=O)OC [methyl methacrylate]
[2]
Conditions | mass density [kg/m3] | viscosity [mPa·s]
283.15 K | 954.802 | 0.6808
288.15 K | 949.097 | 0.6337
293.15 K | 943.365 | 0.5899
298.15 K | 937.615 | 0.554
303.15 K | 931.837 | 0.5248
308.15 K | 926.032 | 0.4956
313.15 K | 920.185 | 0.4719
318.15 K | 914.317 | 0.4497
323.15 K | 908.405 | 0.4294
328.15 K | 902.468 | 0.41
333.15 K | 896.479 | 0.3938
343.15 K | 884.418 | 0.3636
353.15 K | 872.129 | 0.3398

CCCCn1cc[n+](C)c1.F[P-](F)(F)(F)(F)F [1-butyl-3-methylimidazolium hexafluorophosphate]
[2]
Conditions | mass density [kg/m3] | viscosity [mPa·s]
283.15 K | 1380.34 | 802.09
288.15 K | 1376.06 | 552.57
293.15 K | 1371.8 | 389.81
298.15 K | 1367.53 | 282.24
303.15 K | 1363.28 | 209.25
308.15 K | 1359.19 | 159.15
313.15 K | 1355.09 | 123.38
318.15 K | 1350.98 | 97.78
323.15 K | 1346.87 | 78.77
328.15 K | 1342.78 | 61.34
333.15 K | 1338.7 | 50.38
343.15 K | 1330.56 | 35.25
353.15 K | 1322.47 | 25.76
